Tests used:
Stability in mouse serum = format: in vitro ADME
Excerpt: TABLE 1 Pharmacokinetic parameters of PROTAC 2. | column: Stability (hours) ^b / m‐serum

HGADFN167 cells = test: RNA-seq global transcriptomic analysis; format: cell-based, human; conditions: HGADFN167, 5 µM, 20 days
Protocol: To establish the broader impact of PROTAC 2 at the molecular level, we performed detailed gene expression and pathway‐centric enrichment analysis. HGADFN167 cells were treated with either vehicle or compound 2 (5 µM) for 20 days before RNA was extracted for RNA‐seq analysis (3 independent biological samples per condition). […] Remarkably, IL6 identification supports the qPCR results previously obtained (Figure 6C). […] In line with these findings, we identified several genes associated with endothelial and blood vessel development (CLDN11 and FOXS1), ECM organization (PTX3, SCUBE3, TINAGL1, and TNFRSF11B), and mesodermal and mesenchymal regulation (MEST, MEDAG, and STC2).
Cells were harvested by trypsin, centrifuged and washed with PBS. Cells pellets were added with 70% (vol/vol) ice-cold ethanol. The mixture was incubated for 15min at 4 °C, centrifuged 2500 rpm, washed with PBS and then re-suspended in 500ul staining buffer (25ug/mL propidium iodide and 100μg/ml DNAse-free RNAse both from Sigma-Aldrich in PBS). The mixture was then allowed to incubate for 30min at 37 °C in the dark and samples were finally analysed by FACScalibur (Becton Dickinson) flow cytometer
11. Transmission electron microscopy.
Cells previously collected in 1.5 mL tube, were washed with PBS and fixed with 2.5% glutaraldehyde and 4% paraformaldehyde in Milloning´s phosphate buffer (41.5 mL 2.26% NaH2PO4·H2O and 8.5 mL 2.52% NaOH both in milliQ water, pH 7.2-7.4) for 4h at 4 °C. […]
Cells were incubated for 1 h in 1% OsO4 at room temperature and then thoroughly washed with milliQ water. […] The samples were analysed and examined in the transmission electron microscope JEM 1010 at 80 […]
Total RNA of HGPS fibroblasts (HGADFN167) and UCM-18142-treated HGPS fibroblasts were extracted for RNA sequencing. The RNA concentration and integrity were assessed using the Tape Station 4150 system (Agilent). […] All raw reads were mapped to the human genome (Grch38) using the software HISAT2. HTSeq was used to calculate Reads Count and transcripts per kilobase per million reads were computed. […]

For `CC1(C)Oc2cc3oc(=O)ccc3cc2C[C@@H]1OC(=O)CCCCCNc1cccc2c1C(=O)N(C1CCC(=O)NC1=O)C2=O` (stereo partly shown) [compound 2], the “Stability (hours) m‐serum” value (Stability in mouse serum) was 0.28 ± 0.02 h, the downregulated genes (HGADFN167 cells; adjusted p<0.01, log2 FC <−1.0) was 205 and the upregulated genes (HGADFN167 cells; adjusted p<0.01, log2 FC >1.0) was 83. The “differentially expressed genes, treated vs non‐treated” value (HGADFN167 cells; adjusted p<0.01, log2 FC >1.0 or <−1.0) was 288.

Reference: article PMC13252604, “First Generation Proteolysis Targeting Chimeras (PROTACs) for the Treatment of Progeria” (Advanced Science, 2026)
